Source: patent US6623769B1, “Administration of lycopene for combating skin/mucous membrane damage” (Societe L'Oreal S.A., priority 1999, dated 2003)

Test system: promoter of the gene for collagenase 1
Experiment: Inhibition of PMA-induced activity of the collagenase 1 promoter (CAT reporter, CAT-Elisa) in transfected HeLa cells
Assay type: cell-based
Conditions: conclusion in words from the Table, PMA induction
Protocol: The activity of a lycopene-rich tomato extract (LycOMato® marketed by Metaphar) was studied on HeLa cells transfected with an expression vector encoding a portion of the promoter of collagenase cloned upstream of the gene for chloramphenicol acetyltransferase (CAT).
The study made it possible to evaluate the effectiveness of a product in inhibiting the induction of the transcription of the gene for collagenase by phorbol 12-myristate 13-acetate (PMA).
The test was carried out on HeLa cells (ATCC CCL2), into which had been introduced the promoter of the gene for collagenase 1 (3.8 kB) cloned upstream of the gene for chloramphenicol acetyltransferase (CAT).
The cells were exposed to PMA at a concentration of 10 nM for 24 hours.
Before administration of PMA, the cells were contacted for 2 hours with lycopene (LycOMato® marketed by Metaphar) at concentrations varying from 10^−7% to 10^−4%, representing lycopene concentrations ranging from 6×10^−9% to 6×10^−6%.
Assaying of the CAT was carried out using a “CAT-Elisa” kit marketed by Boehringer, according to the supplier's instructions.
A “base level” for the expression of the CAT was measured in cells which had neither received PMA nor were treated with the test product.
The results of the test, reported in the following Table, are expressed with respect to the base level (100%) as percentage of inhibition of the expression of the CAT gene.

CC(C)=CCC/C(C)=C/C=C/C(C)=C/C=C/C(C)=C/C=C/C=C(C)/C=C/C=C(C)/C=C/C=C(\C)CCC=C(C)C [lycopene]
effect on the synthesis of collagenase 1 by inhibition of the activity of its promoter: inhibitory effect
